Data published in patent US20200247855A1, “THERAPY AND DIAGNOSTICS” (OXFORD UNIVERSITY INNOVATION LIMITED, priority 2017, published 2020).
No end group written: not given here.

Key:
[1] = molecular target: T1, CCL8 homodimer (Homo sapiens, UniProt P80075); experiment: Native mass spectrometry of CCL8 with peptide; conditions: 1:1 CCL8 monomer:BK1.1
T1 construct: purchased Peprotech (UK)
T1 sequence (P80075 24-99): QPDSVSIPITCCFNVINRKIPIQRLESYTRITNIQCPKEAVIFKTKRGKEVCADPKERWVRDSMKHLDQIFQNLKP
Description: Mid panel: In-solution dissociation of CCL8 dimer and further binding of CCL8 to one and two BK-1. Confirmation of CCL8/BK-1 complex by HCD gas-phase dissociation of isolated precursor ions: Bottom panel, left: 2217 m/z corresponding to CCL8/BK-1 (1:1) and Bottom panel, […]: 2555 m/z corresponding to CCL8/BK-1 (1:2). Buffers contained up to 0.5% DMSO. All analyses were performed in triplicate.
Samples were analysed using a modified Q-Exactive mass spectrometer (Thermo Fisher Scientific) for high-mass range measurements (Gault, J. et al., Nature methods [2016]). CCL8 was buffered exchanged into 200 mM ammonium acetate solution (pH=6.5). […] In all cases no more than 0.5% DMSO was present in the final mixture, and a control sample of CCL8 homodimer containing 0.5% DMSO was also analysed. Instrumental parameters were set to: capillary voltage of 1.2 KV, source temperature of 50° C. and 60 V of source induced dissociation (SID). Gas phase dissociation was carried out by applying 35 and 55 V of higher-energy collisional dissociation (HCD) to the most intense charge state after isolation (25 m/z window). Spectra was acquired using a mass resolution of 60,000 for both precursor and dissociated product ions. All measurements were done in triplicates.

[2] = molecular target: T2, human CCL8-647 (Homo sapiens, UniProt P80075); experiment: Fluorescent chemokine binding to THP-1 cells (flow cytometry); assay type: cell-based; conditions: FIG. 16 A, B
T2 construct: purchased Almac (UK)
T2 sequence (P80075 24-99): T1 sequence (P80075 24-99)
Description: P672_PEP_SCRAM (C-terminally amidated)=[…] FIG. 16(A). […] 60 μM (+) P672_PEP or P672_PEP_SCRAM were incubated with CCL8-647 (2.5 nM) for half an hour at 37° C. prior to adding to THP-1 cells and incubating everything together for a further half an hour at 37° C. Cells were then analysed using fluorescence assisted cell sorting (10,000 cells analysed) and MFI recorded. Experiment carried out in triplicate where each data point is the average of one experiment carried out in technical triplicate. Mean with SEM shown and statistical significance was determined using one-way ANOVA with Sidak's correction for multiple comparisons using Graph Pad Prism 6. ****=P<0.00005, ns=not significant.
Data are shown as mean of two technical replicates. […] Curves were fitted with 4 parameters to estimate IC50.
Fluorescent chemokine (conjugated to AlexaFluor-647) binding to THP-1 cells results in an increase in the cellular fluorescence intensity, which is quantitatively measured using flow cytometry.
Fluorescent Chemokine/Receptor Blocking Assay CCL8-647 (2.5 nM, final) or […] (1.2 nM, final) was incubated for 30 minutes with varying doses of peptide (0-100 μM, final concentration) in 50 μL assay buffer (RPMI-1640+L-glutamine (4 mM)+10% heat treated fetal bovine serum+0.2% DMSO) at 37° C. […]

EDEDYEDFFKPVTAYF-NH2 [BK1.1]
Effect on CCL8 homodimerization [1]: disrupt CCL8 homodimerization | Inhibition of CCL8-647 binding to THP-1 cells [2]: could inhibit CCL8-647 binding to THP-1 cells
